According to US10913738B2 (BRISTOL-MYERS SQUIBB COMPANY, priority 2017, dated 2021):
Read-outs that look alike come from different tables or passages of the source.

Tests used:
[1] = molecular target: T1, His-GST-TVMV-hRIPK1(1-324) (Homo sapiens, UniProt Q13546); test: RIPK1 HTRF Binding Assay
T1 construct: The coding region of human RIPK1(1-324) flanked by NdeI site at 5′ end; made in house; host or cells: Spodoptera frugiperda (Sf9) insect cells, baculovirus
T1 sequence (Q13546 1-324): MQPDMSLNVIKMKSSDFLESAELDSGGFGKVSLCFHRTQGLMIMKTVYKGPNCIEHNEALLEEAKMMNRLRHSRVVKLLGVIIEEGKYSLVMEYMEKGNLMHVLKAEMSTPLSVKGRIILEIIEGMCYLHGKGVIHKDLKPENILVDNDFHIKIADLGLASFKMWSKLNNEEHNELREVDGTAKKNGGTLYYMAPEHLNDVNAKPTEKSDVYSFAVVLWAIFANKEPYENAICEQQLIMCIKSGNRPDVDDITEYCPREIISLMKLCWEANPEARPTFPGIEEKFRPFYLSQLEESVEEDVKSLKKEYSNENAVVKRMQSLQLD

[2] = tested on: MLKL phosphorylation in HT29-L23 human colorectal adenocarcinoma cells; test: MLKL Phosphorylation High-Content Assay; type: cell-based; settings: Homo sapiens
Method in brief: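 IC50 and Ymax obtained by 4-parameter logistic fitting of MLKL phosphorylation, measured as mean circ-ring average intensity ratio from high-content images. Staining used an anti-phospho-S358 MLKL antibody overnight at 4° C., following six-hour cell incubation at 37° C.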

[3] = x marks IC50 class <20 nM, read-out: RIPK1 HTRF binding <20 nM
[4] = x marks IC50 class <20 nM, read-out: pMLKL cell activity <20 nM
[5] = x marks IC50 class 20-200 nM, read-out: pMLKL cell activity 20-200 nM
[6] = x marks IC50 class 20-200 nM, read-out: RIPK1 HTRF binding 20-200 nM

SMILES | IC50 [1, 3] [µM] | IC50 [2, 4] [µM] | IC50 [2, 5] [µM] | IC50 [1, 6] [µM] | IC50 ([2]; x marks IC50 class >200 nM, read-out: pMLKL cell activity >200 nM) [µM]
COc1nc(C)c(-c2ccn3nc(N)nc3c2)cc1C(=O)NCc1ccccc1OCC(C)C [Example 327, 5-(2-amino-[1,2,4]triazolo[1,5-a]pyridin-7-yl)-N-(2-isobutoxybenzyl)-2-methoxy-6-methylnicotinamide] | < 0.02 | < 0.02 |  |  | 
COc1nc(C)c(-c2ccn3nc(N)nc3c2)cc1C(=O)NCc1c(F)cccc1OCC(F)(F)F [Example 328, 5-(2-amino-[1,2,4]triazolo[1,5-a]pyridin-7-yl)-N-(2-fluoro-6-(2,2,2-trifluoroethoxy)benzyl)-2-methoxy-6-methylnicotinamide] | < 0.02 | < 0.02 |  |  | 
COc1nc(C)c(-c2ccn3nc(N)nc3c2)cc1C(=O)NCc1cc(F)ccc1OC(F)(F)F [Example 329, 5-(2-amino-[1,2,4]triazolo[1,5-a]pyridin-7-yl)-N-(5-fluoro-2-(trifluoromethoxy)benzyl)-2-methoxy-6-methylnicotinamide] | < 0.02 |  | 0.02 to 0.2 |  | 
COc1nc(C)c(-c2ccn3nc(N)nc3c2)cc1C(=O)NCc1ccccc1COC(C)C [Example 330, 5-(2-amino-[1,2,4]triazolo[1,5-a]pyridin-7-yl)-N-(2-(isopropoxymethyl)benzyl)-2-methoxy-6-methylnicotinamide] | < 0.02 |  | 0.02 to 0.2 |  | 
[2H]C([2H])(NC(=O)c1cc(-c2ccn3nc(N)nc3c2)c(C)nc1OC)c1cc(C(F)(F)F)ccc1F [Example 331, 5-(2-amino-[1,2,4]triazolo[1,5-a]pyridin-7-yl)-N-((2-fluoro-5-(trifluoromethyl)phenyl)methyl-d2)-2-methoxy-6-methylnicotinamide] | < 0.02 |  | 0.02 to 0.2 |  | 
COc1nc(C)c(-c2ccn3nc(N)nc3c2)cc1C(=O)NCc1ccccc1OCC(F)(F)F [Example 332, 5-(2-amino-[1,2,4]triazolo[1,5-a]pyridin-7-yl)-2-methoxy-6-methyl-N-(2-(2,2,2-trifluoroethoxy)benzyl)nicotinamide] | < 0.02 |  | 0.02 to 0.2 |  | 
COc1nc(C)c(-c2ccn3nc(N)nc3c2)cc1C(=O)NCc1cc(F)cc(F)c1OCC(C)C [Example 333, 5-(2-amino-[1,2,4]triazolo[1,5-a]pyridin-7-yl)-N-(3,5-difluoro-2-isobutoxybenzyl)-2-methoxy-6-methylnicotinamide] | < 0.02 |  | 0.02 to 0.2 |  | 
COc1nc(C)c(-c2ccn3nc(N)nc3c2)cc1C(=O)NCc1cccc(OCC(F)(F)F)c1 [Example 334, 5-(2-amino-[1,2,4]triazolo[1,5-a]pyridin-7-yl)-2-methoxy-6-methyl-N-(3-(2,2,2-trifluoroethoxy)benzyl)nicotinamide] | < 0.02 |  | 0.02 to 0.2 |  | 
[2H]C([2H])(NC(=O)c1cc(-c2ccn3nc(N)nc3c2)c(C)nc1OC)c1cccc(C(F)(F)F)c1 [Example 335, 5-(2-amino-[1,2,4]triazolo[1,5-a]pyridin-7-yl)-2-methoxy-6-methyl-N-((3-(trifluoromethyl)phenyl)methyl-d2)nicotinamide] |  |  | 0.02 to 0.2 | 0.02 to 0.2 | 
COc1nc(C)c(-c2ccn3nc(N)nc3c2)cc1C(=O)NCc1cc(C(F)(F)F)cc(Cl)c1F [Example 336, 5-(2-amino-[1,2,4]triazolo[1,5-a]pyridin-7-yl)-N-(3-chloro-2-fluoro-5-(trifluoromethyl)benzyl)-2-methoxy-6-methylnicotinamide] |  |  | 0.02 to 0.2 | 0.02 to 0.2 | 
COc1ccc(F)c(CNC(=O)c2cc(-c3ccn4nc(N)nc4c3)c(C)nc2OC)c1 [Example 337, 5-(2-amino-[1,2,4]triazolo[1,5-a]pyridin-7-yl)-N-(2-fluoro-5-methoxybenzyl)-2-methoxy-6-methylnicotinamide] |  |  |  | 0.02 to 0.2 | > 0.2
COc1ncc(-c2ccn3nc(N)nc3c2)cc1C(=O)NCc1c(OCC2CC2)ccc(F)c1F [Example 338, 5-(2-amino-[1,2,4]triazolo[1,5-a]pyridin-7-yl)-N-(6-(cyclopropylmethoxy)-2,3-difluorobenzyl)-2-methoxynicotinamide] | < 0.02 | < 0.02 |  |  | 
